Like-named read-outs stand apart in the source and are kept apart here.
Key:
[1] = target: T1, human cannabinoid receptor type 2 (Homo sapiens, UniProt P34972); experiment: Human CB2 Radioligand Binding Assay; conditions: membranes from stably transfected CHO CB2 cells
T1 construct: expressed in transfected cells; membrane preparation
How it was run: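 Test compounds (10 uM final, or dose-response) competed with [3H]CP-55,940, used at the Kd determined per membrane lot, for binding to stable human CB2-CHO membranes over 90 min at 30° C in pH 7.4 Tris/EGTA/MgCl2/BSA buffer. GF/C filtration then scintillation counting; 100 nM CP-55,940 defined 100% efficacy.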

[2] = target: T2, human cannabinoid receptor type 1 (Homo sapiens, UniProt P21554); experiment: Human CB1 Radioligand Binding Assay (basis of selectivity, CB2 vs. CB1); conditions: CB1: HEK 293 EBNA cells expressing human CB1; CB2: CHO CB2 membranes
T2 construct: purchased Perkin Elmer RBHCB1M; host or cells: HEK 293 EBNA cells
Procedure: 2. Human CB1 Radioligand Binding Assay
The incubation buffer was composed of 50 mM Tris-HCl pH 7.4, 2.5 mM EDTA, 5 mM MgCl2, 5.0 mg/ml fatty acid free BSA and the wash buffer was composed of 50 mM Tris-HCl pH 7.4, 2.5 mM EDTA, 5 mM MgCl2, 0.5 mg/ml fatty acid free BSA.

[3] = competition with [3H] CP-55,940, read-out: CB2 Ligand Binding Asssay EC50
[4] = CB2 Ligand Binding Asssay EC50, competition with [3H] CP-55,940

T2 sequence (P21554 whole entry): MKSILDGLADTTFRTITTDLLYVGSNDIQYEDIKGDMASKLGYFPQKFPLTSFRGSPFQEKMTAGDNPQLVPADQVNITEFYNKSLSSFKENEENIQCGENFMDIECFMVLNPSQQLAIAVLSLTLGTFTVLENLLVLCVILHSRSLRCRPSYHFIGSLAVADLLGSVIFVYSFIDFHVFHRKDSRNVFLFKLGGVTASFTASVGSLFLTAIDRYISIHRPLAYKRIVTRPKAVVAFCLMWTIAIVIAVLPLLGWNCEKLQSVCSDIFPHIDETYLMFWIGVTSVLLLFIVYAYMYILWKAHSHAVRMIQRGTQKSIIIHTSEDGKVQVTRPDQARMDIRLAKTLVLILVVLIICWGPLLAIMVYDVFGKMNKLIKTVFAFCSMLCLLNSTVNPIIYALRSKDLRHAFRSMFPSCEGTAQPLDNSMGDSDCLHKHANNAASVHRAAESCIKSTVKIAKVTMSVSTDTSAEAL
T1 sequence (P34972 whole entry): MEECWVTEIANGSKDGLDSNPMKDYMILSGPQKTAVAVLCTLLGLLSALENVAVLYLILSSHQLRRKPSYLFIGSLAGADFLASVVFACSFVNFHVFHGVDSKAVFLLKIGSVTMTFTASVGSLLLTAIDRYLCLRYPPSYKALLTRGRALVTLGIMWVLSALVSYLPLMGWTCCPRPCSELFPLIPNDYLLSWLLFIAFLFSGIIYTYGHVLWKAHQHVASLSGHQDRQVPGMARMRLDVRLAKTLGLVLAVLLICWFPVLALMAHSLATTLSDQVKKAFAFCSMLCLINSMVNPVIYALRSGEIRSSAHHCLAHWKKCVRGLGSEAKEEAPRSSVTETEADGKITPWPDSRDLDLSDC

| Structure (SMILES) | EC50 [1, 3] [nM] | Selectivity, CB2 vs. CB1 [2] | EC50 [1, 4] [nM] |
| --- | --- | --- | --- |
| COc1ccc2c(N3CCN(C)CC3)nc(C3CCCCC3)nc2c1 [Example 158, 2-Cyclohexyl-7-methoxy-4-(4-methylpiperazin-1-yl)quinazoline] | > 1000 | − (− indicates ≦ 10−fold) |  |
| CCN(CC)CCNC(=O)c1sccc1S(=O)(=O)NCc1nc(N2CCCC2)c2ccccc2n1 [Example 9, N-(2-(Diethylamino)ethyl)-3-(N-((4-(pyrrolidin-1-yl)quinazolin-2-yl)methyl)sulfamoyl)thiophene-2-carboxamide] | > 1000 | − (− indicates ≦ 10−fold) |  |
| Clc1ccc(-c2nc(NCC3CC3)c3ccccc3n2)c(Cl)c1 [Example 30, Cyclopropylmethyl[2-(2,4-dichlorophenyl)quinazolin-4-yl]amine] |  | + (+ indicates > 10−fold) | > 1000 |
| CC(C)c1nc(N2CCN(C)CC2)c2ccccc2n1 [Example 148, 2-Isopropyl-4-(4-methylpiperazin-1-yl)quinazoline] | > 1000 | − (− indicates ≦ 10−fold) |  |
| CN(c1nc(-c2ccc(C(C)(C)C)cc2)nc2ccccc12)C1CCCCC1 [Example 131, 2-(4-tert-Butylphenyl)quinazolin-4-yl cyclohexylmethylamine] | < 1000 | − (− indicates ≦ 10−fold) |  |
| Clc1ccccc1-c1nc(N2CCCC2)c2ccccc2n1 [Example 53, 2-(2-Chlorophenyl)-4-(pyrrolidin-1-yl)quinazoline] | > 1000 | + (+ indicates > 10−fold) |  |
| CN(CCCn1ccnc1)c1nc(-c2ccccc2Cl)nc2ccccc12 [Example 259, N-(3-(1H-Imidazol-1-yl)propyl)-2-(2-chlorophenyl)-N-methylquinazolin-4-amine] | > 1000 | − (− indicates ≦ 10−fold) |  |
| CC(=O)N1CCN(c2nc(-c3ccccc3Cl)nc3ccc(F)cc23)CC1 [Example 268, 1-(4-(2-(2-Chlorophenyl)-6-fluoroquinazolin-4-yl)piperazin-1-yl)ethanone] | < 1000 | − (− indicates ≦ 10−fold) |  |
| CCOC(=O)N1CCN(c2nc(-c3ccccc3Cl)nc3ccc(C(C)(C)C)cc23)CC1 [Example 219, Ethyl 4-(6-tert-butyl-2-(2-chlorophenyl)quinazolin-4-yl)piperazine-1-carboxylate] | < 1000 | + (+ indicates > 10−fold) |  |
| COC(CN(C)c1nc(-c2ccccc2Cl)nc2ccccc12)OC [Example 229, 2-(2-Chlorophenyl)-N-(2,2-dimethoxyethyl)-N-methylquinazolin-4-amine] | > 1000 | − (− indicates ≦ 10−fold) |  |
| CC(C)CNc1nc(-c2ccccc2)nc2ccccc12 [Example 51, N-iso-Butyl-2-phenylquinazolin-4-amine] | > 1000 | − (− indicates ≦ 10−fold) |  |
| CN(Cc1ccccc1)c1nc(-c2ccc(Cl)cc2Cl)nc2ccccc12 [Example 32, N-Benzyl-2-(2,4-dichlorophenyl)-N-methylquinazolin-4-amine] | > 1000 | − (− indicates ≦ 10−fold) |  |
| CC(C)(C)OC(=O)N1CCN(c2nc(-c3ccccc3Cl)nc3ccccc23)C(=O)C1 [Example 75, tert-Butyl 4-(2-(2-Chlorophenyl)quinazolin-4-yl)-3-oxopiperazine-1-carboxylate] |  | − (− indicates ≦ 10−fold) | > 1000 |
| CC(C)(C)c1ccc(-c2nc(Nc3ccccc3Cl)c3ccccc3n2)cc1 [Example 133, 2-(4-tert-Butylphenyl)quinazolin-4-yl 2-chlorophenylamine] | > 1000 | − (− indicates ≦ 10−fold) |  |
| CN(Cc1ccccc1)c1nc(-c2ccccc2Cl)nc2ccccc12 [Example 55, N-Benzyl-2-(2-chlorophenyl)-N-methylquinazolin-4-amine] | < 1000 | − (− indicates ≦ 10−fold) |  |
| Clc1ccc(-c2nc(N3CCSCC3)c3cc(Cl)ccc3n2)cc1 [Example 211, 4-(6-Chloro-2-(4-chlorophenyl)quinazolin-4-yl)thiomorpholine] | > 1000 | − (− indicates ≦ 10−fold) |  |
| CCC(=O)N1CCN(c2nc(-c3ccccc3Cl)nc3cccc(Cl)c23)CC1 [Example 260, 1-(4-(5-Chloro-2-(2-chlorophenyl)quinazolin-4-yl)piperazin-1-yl)propan-1-one] | < 1000 | + (+ indicates > 10−fold) |  |
| Clc1ccc2c(N3CCOCC3)nc(C3CCCCC3)nc2c1 [Example 165, 4-(7-Chloro-2-cyclohexylquinazolin-4-yl)morpholine] |  | + (+ indicates > 10−fold) | > 1000 |
| CCCc1nc(N2CCN(C)CC2)c2ccccc2n1 [Example 41, 4-(4-Methylpiperazin-1-yl)-2-propylquinazoline] | > 1000 | − (− indicates ≦ 10−fold) |  |

The next lines start with results.

| EC50 [1, 3] [nM] | Selectivity, CB2 vs. CB1 [2] | Structure (SMILES) | EC50 [1, 4] [nM] |
| --- | --- | --- | --- |
| < 1000 | − (− indicates ≦ 10−fold) | FC(F)(F)CN1CCN(c2nc(-c3ccccc3Cl)nc3ccccc23)CC1 [Example 104, 2-(2-chlorophenyl)-4-(4-(2,2,2-trifluoroethyl)piperazin-1-yl)quinazoline] |  |
| > 1000 | − (− indicates ≦ 10−fold) | CC1CCCCN1c1nc(-c2ccc(Cl)cc2)nc2ccccc12 (stereo not drawn) [Example 124, 2-(4-Chlorophenyl)-4-(2-methylpiperidin-1-yl)quinazoline] |  |
| < 1000 | − (− indicates ≦ 10−fold) | CN(c1nc(-c2ccccc2Cl)nc2ccccc12)C1CCCCC1 [Example 63, 2-(2-Chlorophenyl)-N-cyclohexyl-N-methylquinazolin-4-amine] |  |
| > 1000 | − (− indicates ≦ 10−fold) | O=C(c1ncc[nH]1)N1CCN(c2nc(-c3ccccc3Cl)nc3ccccc23)CC1 [Example 262, (4-(2-(2-Chlorophenyl)quinazolin-4-yl)piperazin-1-yl)(1H-imidazol-2-yl)methanone] |  |
| < 1000 | + (+ indicates > 10−fold) | CN1CCN(c2nc(-c3ccccc3Cl)nc3ccc(Cl)cc23)CC1 [Example 208, 6-Chloro-2-(2-chlorophenyl)-4-(4-methylpiperazin-1-yl)quinazoline] |  |
| > 1000 | − (− indicates ≦ 10−fold) | O=C1CNCCN1c1nc(-c2ccccc2Cl)nc2ccccc12 [Example 71, 1-(2-(2-Chlorophenyl)quinazolin-4-yl)piperazin-2-one] |  |
| > 1000 | − (− indicates ≦ 10−fold) | C[C@@H]1CN(c2nc(-c3ccccc3Cl)nc3ccccc23)C[C@H](C)N1 [Example 77, 2-(2-Chlorophenyl)-4-((3S,5R)-3,5-dimethylpiperazin-1-yl)quinazoline] |  |
| < 1000 | − (− indicates ≦ 10−fold) | CC(C)(C)c1ccc(-c2nc(N3CCCCC3)c3ccccc3n2)cc1 [Example 111, 2-(4-tert-Butylphenyl)-4-(piperidin-1-yl)quinazoline] |  |
| < 1000 | + (+ indicates > 10−fold) | c1ccc2c(N3CCCC3)nc(C3CCCCC3)nc2c1 [Example 36, 2-Cyclohexyl-4-(pyrrolidin-1-yl)quinazolines] |  |
| < 1000 | + (+ indicates > 10−fold) | Clc1ccc(-c2nc(N3CCCCC3)c3ccccc3n2)c(Cl)c1 [Example 29, 2-(2,4-Dichlorophenyl)-4-piperidin-1-ylquinazoline] |  |
| < 1000 | − (− indicates ≦ 10−fold) | Fc1ccccc1-c1nc(N2CCCCC2)c2ccccc2n1 [Example 150, 2-(2-Fluorophenyl)-4-piperidin-1-ylquinazoline] |  |
| > 1000 | − (− indicates ≦ 10−fold) | Fc1ccc2nc(-c3ccccc3Cl)nc(N3CCCC3)c2c1 [Example 270, 2-(2-Chlorophenyl)-6-fluoro-4-(pyrrolidin-1-yl)quinazoline] |  |
| > 1000 | − (− indicates ≦ 10−fold) | Cc1ccccc1-c1nc(N2CCCCC2)c2ccccc2n1 [Example 187, 4-Piperidin-1-yl-2-o-tolylquinazoline] |  |
| < 1000 | − (− indicates ≦ 10−fold) | Cc1ccc(Cl)cc1N1CCN(c2nc(-c3ccccc3Cl)nc3ccccc23)CC1 [Example 67, 4-[4-(5-Chloro-2-methylphenyl)piperazin-1-yl]-2-(2-chlorophenyl) quinazoline] |  |
| < 1000 | − (− indicates ≦ 10−fold) | CS(=O)(=O)N1CCN(c2nc(-c3ccccc3Cl)nc3ccccc23)CC1 [Example 86, 2-(2-Chlorophenyl)-4-(4-(methylsulfonyl)piperazin-1-yl)quinazoline] |  |
| < 1000 | − (− indicates ≦ 10−fold) | Fc1ccccc1-c1nc(N2CCCC2)c2ccccc2n1 [Example 151, 2-(2-Fluorophenyl)-4-pyrrolidin-1-ylquinazoline] |  |
| > 1000 | − (− indicates ≦ 10−fold) | CCCOC(=O)N1CCN(c2nc(-c3ccccc3Cl)nc3ccccc23)CC1 [Example 94, Propyl 4-(2-(2-chlorophenyl)quinazolin-4-yl)piperazine-1-carboxylate] |  |

From patent US20090209536A1, “AMINOQUINAZOLINE CANNABINOID RECEPTOR MODULATORS FOR TREATMENT OF DISEASE” (KALYPSYS, INC., priority 2007, published 2009)
